Assay results taken from patent US20070299062A1 (The Procter & Gamble Company, priority 2006, published 2007).
Read-outs that look alike come from different tables or passages of the source.

What was measured:
5-HT2c receptor = molecular target: T1, 5-HT2c receptor (Homo sapiens, UniProt P28335); experiment: 5-HT2c receptor binding assay (3H-mesulergine competition)
T1 construct: purchased Perkin-Elmer or Euroscreen (named only as possible suppliers)
T1 sequence (P28335 33-458): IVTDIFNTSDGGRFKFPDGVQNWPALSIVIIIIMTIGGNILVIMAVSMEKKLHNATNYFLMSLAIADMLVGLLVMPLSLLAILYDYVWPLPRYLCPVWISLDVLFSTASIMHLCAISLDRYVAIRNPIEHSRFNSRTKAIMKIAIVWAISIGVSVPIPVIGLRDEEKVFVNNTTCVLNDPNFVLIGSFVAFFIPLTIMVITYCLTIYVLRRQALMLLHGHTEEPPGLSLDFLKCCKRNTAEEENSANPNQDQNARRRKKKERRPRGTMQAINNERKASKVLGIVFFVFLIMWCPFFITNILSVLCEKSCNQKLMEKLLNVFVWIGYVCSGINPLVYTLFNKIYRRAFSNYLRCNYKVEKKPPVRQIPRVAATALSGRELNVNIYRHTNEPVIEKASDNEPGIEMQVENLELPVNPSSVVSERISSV
Description: MCH antagonist compounds are evaluated for binding to the serotonin 5-HT2c receptor to determine receptor selectivity. Binding activity is assessed using a competitive assay with ^3H-mesulergine (Perkin Elmer), a 5-HT2c selective ligand, on membrane containing the 5-HT2c receptor. Briefly, 1 nM ^3H-mesulergine and varying concentrations of the compound are incubated with 5-HT2c receptor membranes, following an incubation period, the membranes are washed and ^3H-mesulergine bound to membranes is measured in a liquid scintillation counter. The amount of bound ^3H-mesulergine at the varying concentration of competitor compound is used to derive the affinity (Ki) of the compound for the 5-HT2c receptor. 5-HT2c receptor containing membranes are readily available from several companies including Perkin-Elmer and Euroscreen.

MCH-1R = MCH-1R (UniProt Q99705); experiment: MCH-1R competition binding assay
Description: In vitro binding and function assays are performed on membranes derived from cells or tissues expressing endogenous MCH1R. Competition binding assays are performed to identify high affinity compounds. Briefly, either radiolabeled or europium labeled MCH with varying concentrations of competitor compound which are incubated with membranes expressing the receptor. Rat brain membrane or cell lines, including but not limited to human Kelly neuroblastoma cells, A-431 epidermoid cells, and rat PC-12 cells are known to express endogenous MCH1R and are used in the assay. Binding is allowed to proceed until equilibrium is reached then bound labeled MCH is separated from free MCH by capturing membranes onto a filter. The filters are washed to remove loosely associated MCH and labeled MCH is quantified. Data is analyzed and IC50 and Ki are calculated to determine compound affinity.

[1] = 1 nM 3H-mesulergine, read-out: Ki (nM) binding data 5-HT2C

| Ki (5-HT2c receptor; [1]) [nM] | Ki (MCH-1R) [nM] | Compound | Ki (5-HT2c receptor) [nM] |
| --- | --- | --- | --- |
| 3170 | 7.4 | CN(C)Cc1ccc2c(c1)CC[C@H](n1cnc3cc(-c4ccc(Cl)cc4)sc3c1=O)C2 [6-(4-Chlorophenyl)-3-((S)-6-dimethylaminomethyl-1,2,3,4-tetrahydronapthealen-2-yl)thieno[3,2-d]pyrimidin-4(3H)-one] | – |
| 2140 | 0.4 | CNCc1ccc2c(c1)CC[C@H](n1cnc3cc(-c4ccc(Cl)cc4)sc3c1=O)C2 [6-(4-Chlorophenyl)-3-((S)-6-methylaminomethyl-1,2,3,4-tetrahydronapthealen-2-yl)thieno[3,2-d]pyrimidin-4(3H)-one] | – |
| > 100000 | 15.8 | CN(CCS(C)(=O)=O)Cc1ccc2c(c1)CC[C@H](n1cnc3cc(-c4ccc(Cl)cc4)sc3c1=O)C2 [6-(4-Chlorophenyl)-3-((S)-6-{[2-methanesulfonylethyl)methylamino]methyl}-1,2,3,4-tetrahydronapthealen-2-yl)thieno[3,2-d]pyrimidin-4(3H)-one] | – |
| > 100000 | 8.2 | CS(=O)(=O)C1CCN(Cc2ccc3c(c2)CC[C@H](n2cnc4cc(-c5ccc(Cl)cc5)sc4c2=O)C3)CC1 [6-(4-Chlorophenyl)-3-[(S)-6-(4-methanesulfonylpiperidin-1-ylmethyl)-1,2,3,4-tetrahydronapthealen-2-yl}thieno[3,2-d]pyrimidin-4(3H)-one] | – |
| > 100000 | 10.7 | O=c1c2sc(-c3ccc(Cl)cc3)cc2ncn1[C@H]1CCc2cc(CNC(CO)CO)ccc2C1 [6-(4-Chlorophenyl)-3-{(S)-6-[(2-hydroxy-1-hydroxymethylethylamino)methyl]-1,2,3,4-tetrahydronapthealen-2-yl}thieno[3,2-d]pyrimidin-4(3H)-one] | – |
| > 100000 | 22.6 | CS(=O)(=O)CCNCc1ccc2c(c1)CC[C@H](n1cnc3cc(-c4ccc(Cl)cc4)sc3c1=O)C2 [6-(4-Chlorophenyl)-3-{(S)-6-[(2-methanesulfonyl-ethylamino)methyl]-1,2,3,4-tetrahydronapthealen-2-yl}thieno[3,2-d]pyrimidin-4(3H)-one] | – |
| 9550 | 24 | O=c1c2sc(-c3ccc(Cl)cc3)cc2ncn1[C@H]1CCc2cc(CN3CC[C@H](O)C3)ccc2C1 [6-(4-Chlorophenyl)-3-{(S)-6-[((S)-3-hydroxypyrrolidin-1-yl)methyl]-1,2,3,4-tetrahydronaphthalen-2-yl}thieno[3,2-d]pyrimidin-4(3H)-one] | – |
| 3080 | 25 | C[C@H](O)CNCc1ccc2c(c1)CC[C@H](n1cnc3cc(-c4ccc(Cl)cc4)sc3c1=O)C2 [6-(4-Chlorophenyl)-3-{(S)-6-[(S)-2-hydroxypropylaminomethyl]-1,2,3,4-tetrahydronapthealen-2-yl}thieno[3,2-d]pyrimidin-4(3H)-one] | – |
| 14600 | 35 | CC(=O)N1CCN(Cc2ccc3c(c2)CC[C@H](n2cnc4cc(-c5ccc(Cl)cc5)sc4c2=O)C3)CC1 [(S)-3-(6-((4-Acetylpiperazin-1-yl)methyl)-1,2,3,4-tetrahydronapthalen-2-yl)-6-(4-chlorophenyl)thieno[3,2-d]pyrimidine-4(3H)-one] | – |
| – | 34 | CC(=O)N1CCN(Cc2ccc3c(c2)CC[C@H](n2cnc4cc(-c5ccc(C#N)cc5)sc4c2=O)C3)CC1 [(S)-3-[6-(4-Acetylpiperazin-1-ymethyl)-1,2,3,4-tetrahydronap] [(S)-3-[6-(4-Acetylpiperazin-1-ymethyl)-1,2,3,4-tetrahydronapthalen-2-yl]-6-(4-cyanophenyl)thieno[3,2-d]pyrimidin-4(3H)-one] | – |
| > 100000 | 8.4 | CC(=O)N1CCN(Cc2ccc3c(c2)CC[C@H](n2cnc4cc(-c5ccc(F)cc5F)sc4c2=O)C3)CC1 [(S)-3-[6-(4-Acetylpiperazin-1-ymethyl)-1,2,3,4-tetrahydronapthalen-2-yl]-6-(2,4-difluorophenyl)thieno[3,2-d]pyrimidin-4(3H)-one] | – |
| 2370 | 24.7 | CC(=O)N1CCN(Cc2ccc3c(c2)CC[C@H](n2cnc4cc(-c5ccc(Cl)cc5Cl)sc4c2=O)C3)CC1 [(S)-3-[6-(4-Acetylpiperazin-1-ymethyl)-1,2,3,4-tetrahydronapthalen-2-yl]-6-(2,4dichlorophenyl)thieno[3,2-d]pyrimidin-4(3H)-one] | – |
| > 100000 | 496 | CC(=O)N1CCN(Cc2ccc3c(c2)CC[C@H](n2cnc4cc(-c5ccnc(Cl)c5)sc4c2=O)C3)CC1 [(S)-3-[6-(4-Acetylpiperazin-1-ymethyl)-1,2,3,4-tetrahydronapthalen-2-yl]-6-(2-chloropyridin-4-yl)thieno[3,2-d]pyrimidin-4(3H)-one] | – |
| > 100000 | 813 | CC(=O)N1CCN(Cc2ccc3c(c2)CC[C@H](n2cnc4cc(-c5cccnc5F)sc4c2=O)C3)CC1 [(S)-3-[6-(4-Acetylpiperazin-1-ymethyl)-1,2,3,4-tetrahydronapthalen-2-yl]-6-(2-fluoropyridin-3-yl)thieno[3,2-d]pyrimidin-4(3H)-one] | – |
| > 100000 | 54.5 | CC(=O)N1CCN(Cc2ccc3c(c2)CC[C@H](n2cnc4cc(-c5ccc(Cl)c(Cl)c5)sc4c2=O)C3)CC1 [(S)-3-[6-(4-Acetylpiperazin-1-ymethyl)-1,2,3,4-tetrahydronapthalen-2-yl]-6-(3,4-dichlorophenyl)thieno[3,2-d]pyrimidin-4(3H)-one] | – |
| > 100000 | 36.6 | CC(=O)N1CCN(Cc2ccc3c(c2)CC[C@H](n2cnc4cc(-c5ccc(F)c(F)c5)sc4c2=O)C3)CC1 [(S)-3-[6-(4-Acetylpiperazin-1-ymethyl)-1,2,3,4-tetrahydronapthalen-2-yl]-6-(3,4-difluorophenyl)thieno[3,2-d]pyrimidin-4(3H)-one] | – |
| > 100000 | – | CC(=O)N1CCN(Cc2ccc3c(c2)CC[C@H](n2cnc4cc(-c5ccc(C#N)cc5)sc4c2=O)C3)CC1 [(S)-3-[6-(4-Acetylpiperazin-1-ymethyl)-1,2,3,4-tetrahydronapthalen-2-yl]-6-(4-cyanophenyl)thieno[3,2-d]pyrimidin-4(3H)-one] | – |

| Compound | Ki (5-HT2c receptor; [1]) [nM] | Ki (MCH-1R) [nM] | Ki (5-HT2c receptor) [nM] |
| --- | --- | --- | --- |
| CS(=O)(=O)N1CCN(Cc2ccc3c(c2)CC[C@H](n2cnc4cc(-c5ccnc(Cl)c5)sc4c2=O)C3)CC1 | > 100000 | 157 | – |
| COc1ncccc1-c1cc2ncn([C@H]3CCc4cc(CN5CCN(S(C)(=O)=O)CC5)ccc4C3)c(=O)c2s1 | > 100000 | 373 | – |
| CS(=O)(=O)N1CCN(Cc2ccc3c(c2)CC[C@H](n2cnc4cc(-c5ccc(Cl)cc5Cl)sc4c2=O)C3)CC1 | > 100000 | 107 | – |
| CS(=O)(=O)N1CCN(Cc2ccc3c(c2)CC[C@H](n2cnc4cc(-c5ccc(F)cc5F)sc4c2=O)C3)CC1 | > 100000 | 7.6 | – |
| CS(=O)(=O)N1CCN(Cc2ccc3c(c2)CC[C@H](n2cnc4cc(-c5cccc(C#N)c5)sc4c2=O)C3)CC1 | > 100000 | 310 | – |
| CS(=O)(=O)N1CCN(Cc2ccc3c(c2)CC[C@H](n2cnc4cc(-c5ccc(Cl)c(Cl)c5)sc4c2=O)C3)CC1 | > 100000 | 142 | – |
| CS(=O)(=O)N1CCN(Cc2ccc3c(c2)CC[C@H](n2cnc4cc(-c5ccc(F)c(F)c5)sc4c2=O)C3)CC1 | > 100000 | 39.3 | – |
| CS(=O)(=O)N1CCN(Cc2ccc3c(c2)CC[C@H](n2cnc4cc(-c5cc(F)cc(F)c5)sc4c2=O)C3)CC1 | > 100000 | 117 | – |
| CS(=O)(=O)N1CCN(Cc2ccc3c(c2)CC[C@H](n2cnc4cc(-c5cncc(Cl)c5)sc4c2=O)C3)CC1 | – | 21 | > 100000 |
| CS(=O)(=O)N1CCN(Cc2ccc3c(c2)CC[C@H](n2cnc4cc(-c5cncc(F)c5)sc4c2=O)C3)CC1 | – | 13.4 | > 100000 |
| COc1cncc(-c2cc3ncn([C@H]4CCc5cc(CN6CCN(S(C)(=O)=O)CC6)ccc5C4)c(=O)c3s2)c1 | – | 17.9 | > 100000 |
| CS(=O)(=O)N1CCN(Cc2ccc3c(c2)CC[C@H](n2cnc4cc(-c5ccoc5)sc4c2=O)C3)CC1 | > 100000 | 733 | – |
| CS(=O)(=O)N1CCN(Cc2ccc3c(c2)CC[C@H](n2cnc4cc(-c5cccnc5)sc4c2=O)C3)CC1 | > 100000 | 752 | – |
| CS(=O)(=O)N1CCN(Cc2ccc3c(c2)CC[C@H](n2cnc4cc(-c5cccs5)sc4c2=O)C3)CC1 | > 100000 | 122 | – |
| CS(=O)(=O)N1CCN(Cc2ccc3c(c2)CC[C@H](n2cnc4cc(-c5ccsc5)sc4c2=O)C3)CC1 | > 100000 | 60 | – |
